Experimental data published in patent US9695155B2, “Herbicidal substituted pyrimidinyloxy benzene compounds” (E. I. DU PONT DE NEMOURS AND COMPANY, priority 2013, dated 2017).

Columns and labels:
[1] = test system: wheat; assay: Test A postemergence; type: in vivo, Triticum aestivum
How it was run: (§1)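 Visual 0–100 rating (100 = complete control) taken about 10 d post-treatment relative to untreated checks. Preemergence: directed soil spray on sown loam/sand pots. Postemergence: seedlings 2–10 cm, 1–2 leaf. Non-phytotoxic solvent formulation with surfactant.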

[2] = test system: pigweed; assay: Test A preemergence; type: in vivo, Amaranthus retroflexus; settings: for Pigweed plant response rating: 500 g ai/ha
How it was run: as §1

[3] = test system: barnyardgrass; assay: Test A preemergence; type: in vivo, Echinochloa crus-galli; settings: for Plant response rating, Barnyardgrass / Barnyardgrass plant response rating: 0 to 100 scale where 0 is no effect and 100 is complete control; for Barnyardgrass plant response rating: 500 g ai/ha
How it was run: as §1

[4] = test system: Heteranthera limosa; assay: Test B flooded paddy test; type: in vivo; settings: Flood, 250 g ai/ha; 0 to 100 scale where 0 is no effect and 100 is complete control
How it was run: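 Visual ratings on a 0 to 100 scale, where 100 means complete control, compared treated plants with controls after 13 to 15 days in a greenhouse. Treatment went into paddy water 3 cm deep over the soil, applied to plants at the 2-leaf stage.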

[5] = test system: morningglory; assay: Test C postemergence; type: in vivo, Ipomoea coccinea
Excerpt: (§2) Seeds of plant species selected from blackgrass (Alopecurus myosuroides), Italian ryegrass (Lolium multiflorum), wheat, winter (winter wheat, Triticum aestivum), galium (catchweed bedstraw, Galium aparine), corn (Zea mays), large (Lg) crabgrass (Digitaria sanguinalis), giant foxtail (Setaria faberii), johnsongrass (Sorghum halepense), lambsquarters (Chenopodium album), morningglory (Ipomoea coccinea), yellow nutsedge (Cyperus esculentus), pigweed (Amaranthus retroflexus), ragweed (common ragweed, Ambrosia elatior), soybean (Glycine max), barnyardgrass (Echinochloa crus-galli), oilseed rape (Brassica napus), waterhemp (common waterhemp, Amaranthus rudis), kochia (Kochia scoparia), wild oat (Avena fatua), surinam grass (Brachiaria decumbens), foxtail, green (green foxtail, Setaria viridis), goosegrass (Eleusine indica), bromegrass, downy (downy bromegrass, Bromus tectorum), nightshade (eastern black nightshade, Solanum ptycanthum), cocklebur (common cocklebur, Xanthium strumarium), cupgrass, woolly (woolly cupgrass, Eriochloa villosa), bermudagrass (Cynodon dactylon), sunflower, (common oilseed sunflower, Helianthus annuus), Russian thistle (Salsola kali), and velvetleaf (Abutilon theophrasti) were planted into a blend of loam soil and sand and treated preemergence with test chemicals formulated in a non-phytotoxic solvent mixture which included a surfactant.
(§3) At the same time, plants selected from these crop and weed species and also barley, winter (winter barley, Hordeum vulgare), windgrass (Apera spica-venti), chickweed (common chickweed, Stellaria media), deadnettle (henbit deadnettle, Lamium amplexicaule), and canarygrass (littleseed canarygrass, Phalaris minor) were planted in pots containing Redi-Earth® planting medium (Scotts Company, 14111 Scottslawn Road, Marysville, Ohio 43041) comprising spaghnum peat moss, vermiculite, wetting agent and starter nutrients and treated with postemergence applications of test chemicals formulated in the same manner. Plants ranged in height from 2 to 18 cm (1- to 4-leaf stage) for postemergence treatments. Treated plants and controls were maintained in a greenhouse for 13 to 15 days, after which time all species were compared to controls and visually evaluated. Plant response ratings, summarized in Table C, are based on a scale of 0 to 100 where 0 is no effect and 100 is complete control. A dash (-) response means no test result.

[6] = test system: wild oat; assay: Test C postemergence; type: in vivo, Avena fatua
Excerpt: as §2, §3

[7] = test system: morningglory; assay: Test A preemergence; type: in vivo, Ipomoea spp.; settings: for Morningglory plant response rating (0 to 100 scale): 125 g ai/ha; for Morningglory plant response rating: 500 g ai/ha, 0 to 100 scale where 0 is no effect and 100 is complete control
How it was run: as §1

[8] = test system: velvetleaf; assay: Test A preemergence; type: in vivo, Abutilon theophrasti; settings: for Velvetleaf plant response rating (0 to 100 scale): 125 g ai/ha; for Velvetleaf plant response rating: 500 g ai/ha, 0 to 100 scale where 0 is no effect and 100 is complete control
How it was run: as §1

[9] = test system: morningglory; assay: Test A postemergence; type: in vivo, Ipomoea spp.
How it was run: as §1

[10] = test system: blackgrass; assay: Test C postemergence; type: in vivo, Alopecurus myosuroides
Excerpt: as §2, §3

[11] = test system: kochia; assay: Test C postemergence; type: in vivo, Kochia scoparia
Excerpt: as §2, §3

[12] = test system: pigweed; assay: Test C postemergence; type: in vivo, Amaranthus retroflexus
Excerpt: as §2, §3

[13] = test system: barnyardgrass; assay: Test C postemergence; type: in vivo, Echinochloa crus-galli
Excerpt: as §2, §3

[14] = test system: ragweed; assay: Test C postemergence; type: in vivo, Ambrosia elatior
Excerpt: as §2, §3

[15] = 125 g ai/ha, 0 to 100 scale where 0 is no effect and 100 is complete control
[16] = 500 g ai/ha, 0 to 100 scale where 0 is no effect and 100 is complete control
[17] = 0 to 100 scale where 0 is no effect and 100 is complete control
[18] = 16 g ai/ha, postemergence, 0 is no effect, 100 is complete control
[19] = 31 g ai/ha, postemergence, visual rating, scale 0 to 100 (0 no effect, 100 complete control), 13 to 15 days
[20] = 125 g ai/ha, postemergence, visual rating, scale 0 to 100 (0 no effect, 100 complete control)
[21] = Postemergence, 62 g ai/ha, scale 0 to 100 (0 no effect, 100 complete control)
[22] = 125 g ai/ha, 0 to 100 scale, 0 no effect, 100 complete control

## N#Cc1cnn(-c2c(C#N)cccc2Oc2ncc(Br)cn2)c1 [Compound 135]
[1]; [15]
  Wheat plant response rating: 10
[1]; [16]
  Plant response rating, Wheat: 60
[2]; [15]
  Plant response rating, Pigweed: 100
[2]; [17]
  Pigweed plant response rating: 100
[3]; 125 g ai/ha
  Plant response rating, Barnyardgrass: 40
[3]
  Barnyardgrass plant response rating: 90
[4]
  Plant response rating, Ducksalad: 70

## FC(F)c1cccc(Oc2ncc(Br)cn2)c1-n1cc(C(F)(F)F)cn1 [Compound 163]
[1]; [15]
  Wheat plant response rating: 10
[1]; [16]
  Plant response rating, Wheat: 60
[2]; 125 g ai/ha
  Pigweed plant response rating (0 to 100 scale): 100
[2]; [17]
  Pigweed plant response rating: 100
[5]; [18]
  Plant response rating (0 to 100), Morningglory: 20
[5]; [19]
  Morningglory plant response rating: 50
[5]; [20]
  Plant response rating, Morningglory: 90
[5]; [21]
  Plant response rating, Morningglory: 65
[3]; 125 g ai/ha
  Plant response rating, Barnyardgrass: 50
[3]
  Barnyardgrass plant response rating: 100
[6]; [18]
  Plant response rating (0 to 100), Oat, Wild: 0
[6]; [19]
  Oat, Wild plant response rating: 5
[6]; [20]
  Plant response rating, Oat, Wild: 20
[6]; [21]
  Plant response rating, Oat, Wild: 10
[7]
  Morningglory plant response rating (0 to 100 scale): 0
  Morningglory plant response rating: 70
[8]
  Velvetleaf plant response rating (0 to 100 scale): 20
  Velvetleaf plant response rating: 100
[9]; [15]
  Morningglory plant response rating: 90
[9]; [16]
  Plant response rating, Morningglory: 100
[10]; [18]
  Plant response rating (0 to 100), Blackgrass: 0
[10]; [19]
  Blackgrass plant response rating: 5
[10]; [20]
  Plant response rating, Blackgrass: 15
[10]; [21]
  Plant response rating, Blackgrass: 5
[11]; [18]
  Plant response rating (0 to 100), Kochia: 90
[11]; [19]
  Kochia plant response rating: 90
[11]; [20]
  Plant response rating, Kochia: 100
[11]; [21]
  Plant response rating, Kochia: 100
[12]; [18]
  Plant response rating (0 to 100), Pigweed: 80
[12]; [19]
  Pigweed plant response rating: 85
[12]; [20]
  Plant response rating, Pigweed: 90
[12]; [21]
  Plant response rating, Pigweed: 90
[13]; [18]
  Plant response rating (0 to 100), Barnyardgrass: 5
[13]; [19]
  Barnyardgrass plant response rating: 5
[13]; [20]
  Plant response rating, Barnyardgrass: 5
[13]; [21]
  Plant response rating, Barnyardgrass: 5
[14]; [18]
  Plant response rating (0 to 100), Ragweed: 10
[14]; [19]
  Ragweed plant response rating: 35
[14]; [20]
  Plant response rating, Ragweed: 60
[14]; [21]
  Plant response rating, Ragweed: 35
[4]
  Plant response rating, Ducksalad: 90

## FC(F)c1cccc(Oc2ncc(Cl)cn2)c1-n1cc(C(F)(F)F)cn1 [Compound 170]
[1]; [15]
  Wheat plant response rating: 30
[1]; [16]
  Plant response rating, Wheat: 70
[2]; 125 g ai/ha
  Pigweed plant response rating (0 to 100 scale): 100
[2]; [17]
  Pigweed plant response rating: 100
[3]; 125 g ai/ha
  Plant response rating, Barnyardgrass: 90
[3]
  Barnyardgrass plant response rating: 100
[7]
  Morningglory plant response rating (0 to 100 scale): 20
  Morningglory plant response rating: 90
[8]
  Velvetleaf plant response rating (0 to 100 scale): 80
  Velvetleaf plant response rating: 100
[9]; [15]
  Morningglory plant response rating: 60
[9]; [16]
  Plant response rating, Morningglory: 90
[4]
  Plant response rating, Ducksalad: 95

## NC(=S)c1cccc(Oc2ncc(Cl)cn2)c1-n1cc(Cl)cn1 [Compound 292]
[1]; [22]
  Plant response rating, Wheat: 10
[1]; [16]
  Plant response rating, Wheat: 60
[2]; 125 g ai/ha
  Pigweed plant response rating (0 to 100 scale): 100
[2]; [17]
  Pigweed plant response rating: 100
[3]; 125 g ai/ha
  Barnyardgrass plant response rating (0 to 100 scale, 0 is no effect, 100 is complete control): 80
[3]
  Barnyardgrass plant response rating: 100
[7]
  Morningglory plant response rating (0 to 100 scale): 30
  Morningglory plant response rating: 90
[8]
  Velvetleaf plant response rating (0 to 100 scale): 30
  Velvetleaf plant response rating: 100
[9]; [22]
  Plant response rating, Morningglory: 90
[9]; [16]
  Plant response rating, Morningglory: 100
[4]
  Plant response rating, Ducksalad: 45
